From patent US8628961B2, “Small molecule antagonists of phosphatidylinositol-3,4,5-triphosphate (PIP3) and uses thereof” (Tufts University, priority 2010, dated 2014)

Key:
Bcl-xL = Bcl-xL (Homo sapiens (Human), UniProt Q07817); test: NMR HSQC specificity control; assay type: binding
apoptosis = test: Apoptosis features: subG1 DNA content, Western blot of caspase-3 and PARP; assay type: cell-based
Text: Since PI3K/PIP3/Akt signaling plays a critical role in the inhibition of apoptosis (Datta S R et al. (1999) Genes Dev 13:2905-27), the possibility that PITs induce apoptosis was examined. […] Proapoptotic Bcl-2 family members Bax and Bak are important mediators of apoptosis. Wei M C et al. (2001) Science 292:727-30. […] Non-apoptotic mechanisms of cell death may also play some additional, albeit less important, role in PIT-induced killing, as some cell death was still observed in Bax/Bak-deficient cells and in the presence of zVAD.fmk.

U87MG cells [1] = test: Combination with Akt kinase inhibitors in U87MG cells (western blot, ATP assay); assay type: cell-based, human; conditions: 100 μM PIT-1 with 10 μM Akt inhibitor
Experimental: U87MG cells were treated with 100 μM PIT-1, or 10 μM Akt inhibitor VIII (Calbiochem) or Akt inhibitor (Calbiochem), or 100 μM PIT-1 together with 10 μM Akt inhibitor VIII or Akt inhibitor, for 12 hr and then phosphorylation events were evaluated by western blot.

PH123 = PH123 (Homo sapiens (Human), UniProt P31749); test: Lipid overlay assay of PIP3/PH123 binding
[2] = Solubility (aqueous, cell media); assay type: physicochemical
Text: The size of the DM-PIT-1-loaded micelles was about 15 nm with a narrow size distribution.

PLC-δ PH domain [3] = biological target: T1, PLC-δ PH domain (Homo sapiens (Human), UniProt P51178); test: FP PIP2/PLC-δ PH domain binding assay; conditions: FIG. 5
Experimental: FIG. 5 is a graph depicting specificity and concentration-dependent competitive inhibition of PIP3-PH domain interaction by PIT-1 and PIT-2. 15 nM TMR-conjugated PIP2 were incubated with 100 nM PLC-δ PH domain in the presence or absence of the indicated concentrations of PITs (0-200 μM) for 30 min, followed by FP measurement.
In order to identify compounds that disrupt the interaction between PIP3 and PH domains, a high-throughput fluorescence polarization (FP)-binding assay was developed using recombinant 1-123 amino acid N-terminal fragment of human Akt1 (also referred to herein simply as Akt), encompassing the PH domain (PH123 protein), and fluorescent NBD-labeled PIP3 molecule. The amino acid sequence of human Akt1 is publicly available as, for example, GenBank Accession No. NP_001014432.1 (SEQ ID NO:1), and the corresponding DNA sequence is publicly available as, for example, GenBank Accession No. NM_001014432. Briefly, 5 μM recombinant GST fusion proteins containing 1-123 a.a. N-terminal fragment of human Akt1 (PH 123) or 100 nM 441-551 a.a. region of human PDK1 were incubated with 15 nM TMR-labeled PIP3, PIP2, or PIP5 in buffer containing 50 mM Tris-HCl (pH 7.5), 150 mM NaCl, and 5 mM b-ME for 15 min at room temperature in the dark. FP values were determined using Wallac Victor 3 plate reader. […]

eIF-1 = eIF-1 (Homo sapiens (Human), UniProt P41567); test: NMR HSQC specificity control; assay type: binding
PLC-δ PH domain [4] = biological target: T1, PLC-δ PH domain; test: PH domain translocation assay (GFP fusion); assay type: cell-based
Experimental: Cells were transfected with the corresponding GFP-fusion vectors, serum starved overnight, and incubated with 100 μM PITs or PIT-1 is for 2 hr, followed by stimulation with 100 ng/ml PDGF or 250 ng/ml PMA for 5 min. The translocation was analyzed using fluorescent microscope and was quantitated by counting the number of cells with translocated PH domains in five random fields.

[5] = system: differentiated HL-60 cells; test: fMLP-stimulated cell polarization; assay type: cell-based; conditions: 100 μM, 2 hr
Experimental: In another set of experiments, the ability of PITs to inhibit fMLP-stimulated HL-60 cell polarization was examined. Differentiated HL-60 cells were treated with PIT-1, PIT-2, PIT-1i-1, or PIT-1i-2, each at 100 μM for 2 hr, followed by stimulation with 100 nM fMLP for 3 min. Actin was stained and analyzed using fluorescent microscopy. The number of the polarized cells was counted in five random fields.

WAVE2 = WAVE2 (Homo sapiens (Human), UniProt Q9Y6W5); test: Plasma membrane translocation assay (GFP fusion); assay type: cell-based
Experimental: (§1) To begin characterizing cellular activity of PITs, a PH domain translocation assay was performed, measuring PIP3-induced association of GFP-fused PH domains with the plasma membrane. This method provides useful means for monitoring status of the PH domain/PIP3 binding in the intact cells. Varnai P et al. (1999) J Biol Chem 274:10983-9. Several PH-domain-containing proteins, which are known to bind PIP3 specifically and efficiently, were examined. […] Oikawa T et al. (2004) Nat Cell Biol 6:420-6.

VAV2 = VAV2 (Homo sapiens (Human), UniProt P52735); test: Plasma membrane translocation assay (GFP fusion); assay type: cell-based; conditions: PDGF stimulation
Experimental: as §1

[6] = system: PI3K/PDK1/Akt signaling pathway; test: PIP3-dependent phosphorylation events in HUVEC, Western blotting; assay type: cell-based, human; conditions: 50, 100 and 200 μM, 2 hr, bFGF
Experimental: Endothelial cell migration plays a central role in tumor angiogenesis. Avraamides C J et al. (2008) Nat Rev Cancer 8:604-17. […] First, human umbilical vein endothelial cells (HUVEC) cells were serum starved overnight, and treated with different concentrations of PIT-1 (50, 100 and 200 μM) for 2 hr, followed by stimulation with 10 ng/ml bFGF for 15 min, and the PIP3-dependent phosphorylation events were evaluated by Western blotting.

U87MG cells [7] = test: Cell death in U87MG cells overexpressing PH domain-deficient constitutively active Akt; assay type: cell-based, human
Experimental: To further confirm the mode of action of PIT-1 in the cells is directly related to the inhibition of PIP3/Akt PH domain interaction, induction of cell death in cells overexpressing constitutively active Akt lacking PH domain, but containing a membrane-targeting myristoylation signal, was tested. […] This is not unexpected, considering that another PIT-1 target, PDK1, regulates cell survival through both Akt-dependent and Akt-independent pathways.

T1 sequence (P51178 21-130): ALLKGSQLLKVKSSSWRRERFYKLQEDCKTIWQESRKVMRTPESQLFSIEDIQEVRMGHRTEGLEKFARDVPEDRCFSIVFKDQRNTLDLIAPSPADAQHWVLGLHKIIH
Chain of eIF-1 (P41567 whole entry, species assumed, the tested form may be a part): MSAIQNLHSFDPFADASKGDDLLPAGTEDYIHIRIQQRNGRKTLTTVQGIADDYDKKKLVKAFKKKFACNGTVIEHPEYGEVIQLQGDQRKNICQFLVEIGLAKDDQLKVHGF
Chain of Bcl-xL (Q07817 whole entry, species assumed): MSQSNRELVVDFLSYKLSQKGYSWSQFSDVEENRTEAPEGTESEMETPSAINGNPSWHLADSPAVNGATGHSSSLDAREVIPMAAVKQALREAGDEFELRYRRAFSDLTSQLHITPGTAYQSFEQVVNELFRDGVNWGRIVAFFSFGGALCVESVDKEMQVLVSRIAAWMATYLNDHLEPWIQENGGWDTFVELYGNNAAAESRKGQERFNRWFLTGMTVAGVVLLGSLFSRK
Chain of PH123 (P31749 1-123): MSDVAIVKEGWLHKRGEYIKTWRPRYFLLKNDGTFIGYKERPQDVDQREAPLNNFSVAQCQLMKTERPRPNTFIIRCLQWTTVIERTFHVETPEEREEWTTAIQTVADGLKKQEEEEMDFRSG
Chain of VAV2 (P52735 whole entry, species assumed, the tested form may be a part): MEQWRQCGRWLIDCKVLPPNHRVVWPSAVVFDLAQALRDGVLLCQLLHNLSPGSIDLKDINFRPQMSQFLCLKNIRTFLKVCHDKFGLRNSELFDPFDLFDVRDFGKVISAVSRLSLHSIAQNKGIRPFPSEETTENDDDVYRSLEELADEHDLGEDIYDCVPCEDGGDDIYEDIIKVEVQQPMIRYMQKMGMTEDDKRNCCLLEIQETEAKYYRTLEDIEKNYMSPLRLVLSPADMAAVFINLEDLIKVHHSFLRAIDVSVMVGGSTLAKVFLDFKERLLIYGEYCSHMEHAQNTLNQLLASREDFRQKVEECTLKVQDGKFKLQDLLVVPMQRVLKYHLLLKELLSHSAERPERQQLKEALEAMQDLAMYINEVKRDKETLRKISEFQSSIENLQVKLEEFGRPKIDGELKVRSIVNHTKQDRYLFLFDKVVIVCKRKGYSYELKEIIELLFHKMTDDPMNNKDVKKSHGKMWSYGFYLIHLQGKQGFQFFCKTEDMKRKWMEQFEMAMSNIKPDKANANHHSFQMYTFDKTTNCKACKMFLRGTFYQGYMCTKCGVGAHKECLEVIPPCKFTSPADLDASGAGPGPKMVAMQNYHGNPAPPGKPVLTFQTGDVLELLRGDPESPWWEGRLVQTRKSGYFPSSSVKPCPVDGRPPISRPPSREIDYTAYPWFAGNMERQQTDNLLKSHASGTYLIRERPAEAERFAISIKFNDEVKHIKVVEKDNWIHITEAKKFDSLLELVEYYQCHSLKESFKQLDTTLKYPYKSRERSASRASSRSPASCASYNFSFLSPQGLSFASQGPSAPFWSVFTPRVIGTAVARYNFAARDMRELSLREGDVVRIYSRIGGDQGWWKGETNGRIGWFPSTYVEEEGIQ
Chain of WAVE2 (Q9Y6W5 whole entry, species assumed, the tested form may be a part): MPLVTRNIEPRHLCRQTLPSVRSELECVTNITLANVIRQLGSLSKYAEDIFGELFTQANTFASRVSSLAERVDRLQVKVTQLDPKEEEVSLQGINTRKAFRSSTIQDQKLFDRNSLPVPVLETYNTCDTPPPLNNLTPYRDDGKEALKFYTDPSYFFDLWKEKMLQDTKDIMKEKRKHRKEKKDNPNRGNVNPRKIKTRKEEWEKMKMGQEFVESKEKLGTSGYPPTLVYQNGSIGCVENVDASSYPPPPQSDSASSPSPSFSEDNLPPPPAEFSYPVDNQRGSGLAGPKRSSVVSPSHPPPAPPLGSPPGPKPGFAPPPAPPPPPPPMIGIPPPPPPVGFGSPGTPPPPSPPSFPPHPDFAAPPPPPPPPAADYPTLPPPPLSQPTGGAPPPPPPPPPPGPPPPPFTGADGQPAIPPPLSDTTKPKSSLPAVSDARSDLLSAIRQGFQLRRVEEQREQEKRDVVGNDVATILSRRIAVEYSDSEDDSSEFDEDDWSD

In the case of `O=C(NC(=S)Nc1cc([N+](=O)[O-])cc(Cl)c1O)c1ccccc1` [PIT-1], the “changes in HSQC spectra of Bcl-xL” value (Bcl-xL) is reported as “did not elicit any changes”, the “subG1 DNA content in cells” value (apoptosis; P<0.01) is reported as “significant increase in subG1 DNA content” and the “cleavage/activation of caspase-3 and processing of PARP” value (apoptosis; Western blot) is reported as “induced the cleavage/activation”. The “combination with Akt kinase inhibitors: Akt activation, downstream phosphorylation, cell survival” value (U87MG cells [1]) was “acted synergistically”, the “inhibitory effect on PIP3/PH123 binding” value (PH123) was “concentration-dependent inhibitory effect” and the aqueous solubility [2] was “limited aqueous solubility”. For the same compound, the “inhibition of interaction between PIP2 and PH domain of PLC-δ” value (PLC-δ PH domain [3]) was “failed to inhibit”, the “changes in HSQC spectra of eIF-1” value (eIF-1) was “did not elicit any changes” and the “cellular localization of PLC-δ PH domain” value (PLC-δ PH domain [4]) was “no inhibitory effect”. For the same compound, the “fMLP-stimulated polarization of differentiated HL-60 neutrophils” value [5] was “efficient inhibition”, the “plasma membrane translocation of WAVE2” value (WAVE2) was “suppressed the plasma membrane translocation” and the “plasma membrane translocation of VAV2” value (VAV2) was “significantly inhibited the translocation”. For the same compound, the “PI3K/PDK1/Akt signaling in HUVEC” value [6] was “capable of blocking PI3K/PDK1/Akt signaling pathway” and the “effect of overexpressed PH domain-deficient Akt on killing of U87MG cells” value (U87MG cells [7]) was “significantly protected U87MG cells from PIT-1 killing”.
